One data set concerns the target T1, human PMNL LTB4 receptor (Homo sapiens, UniProt Q15722).
T1 construct: endogenous in cells; host or cells: human polymorphonuclear leukocytes (PMNL), intact cells
In words: Binding affinity of 3H-LTB4 antagonist to human PMNL LTB4 receptor (inhibition of specific 3H-LTB4 binding). To be noted: 1 nM 3H-LTB4, human PMNLs, 4° C., 20 min. The procedure: Human PMNLS (1×10^7 cells) were incubated with 1 nM ^3 H-LTB4 in Hanks balanced salt solution (1 ml) at 4° C. for 20 min. in the presence or absence of increasing concentrations of unlabeled LTB4 or various compounds. Free ^3 H-LTB4 was separated from PMNLs-bound ligands by vacuum filteration through Whatman GF/B or C glass fiber filters. The filters were then washed rapidly 4 times with 2.5 ml of the ice-cold phosphate buffered saline. The radioactivity retained in the filter was determined by liquid scintillation counting. Specific binding was defined as the difference between total binding and binding in the presence of 3 μM LTB4 (nonspecific binding). The inhibitory effect of specific ^3 H-LTB4 binding was calculated from the following equation.
The percentage of inhibition (%)=100-(B1 /B0 ×100)
B1 : specific ^3 H-LTB4 binding in presence of antagonist
B0 : specific ^3 H-LTB4 binding in absence of antagonist

A further data set deals with Human PMNLs. Put plainly: Inhibition of human PMNLs aggregation (LTB4-induced). To be noted: PMNL, LTB4 10^-8 M solution, 3 min preincubation at 37° C., pH 7.4. It counts as cell-based. As to the method:
ii) Inhibition of Human PMNLs aggregation
The purified human PMNLs were suspended in Hank's-0.5% BSA medium (pH 7.4) at 1×10^7 cells/ml. The PMNLs suspentions (200 μl) were preincubated with varying concentrations of tasted compounds for 3 min at 37° C. prior to the addition of 10^-8 M solution ([…]) of LTB4 in Hank's solution. PMNLs aggregation in vitro was performed with a multichannel platelet aggregometer. Aggregation was detected as change in light transmission with an aggregometer.

A short description of data set [1]: Acute toxicity (LD50) in mouse. To be noted: in vivo. An excerpt:
It was confirmed that the toxicity of the compounds, of the present invention were very low. […] Accordingly, it was confirmed that the compounds of the present invention were useful for pharmaceutical agent.

Among the data in patent US5256686A, “Phenylalkan(en)oic acid” (Ono Pharmaceutical Co., Ltd., priority 1989, dated 1993) are IC50 and LD50 values, retold here.

T1 sequence (Q15722 whole entry): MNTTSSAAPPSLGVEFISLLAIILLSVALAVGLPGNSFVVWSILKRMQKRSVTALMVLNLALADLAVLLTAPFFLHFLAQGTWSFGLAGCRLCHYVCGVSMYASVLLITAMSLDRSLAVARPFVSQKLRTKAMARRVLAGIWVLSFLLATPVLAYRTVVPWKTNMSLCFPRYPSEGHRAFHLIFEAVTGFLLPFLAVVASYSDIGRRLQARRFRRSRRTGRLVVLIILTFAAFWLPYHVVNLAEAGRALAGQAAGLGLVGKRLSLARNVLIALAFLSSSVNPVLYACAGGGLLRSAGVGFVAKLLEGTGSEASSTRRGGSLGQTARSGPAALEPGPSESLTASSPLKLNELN

What is called IC50 is the concentration that gives 50% inhibition. With `COc1ccc(/C=C/CCCCOc2ccc(NC(=O)c3cccc(C(=O)O)c3)cc2CCC(=O)O)cc1` [2 (b), 3-[1-[6-(4-methoxyphenyl)hex-5E-enyl]oxy-4-(3-carboxylbenzamido)benzen-2-yl]propionic acid], the IC50 came to 20 nM on human PMNL LTB4 receptor and 7400 nM in the data set on Human PMNLs.
For the compound `COc1ccc(/C=C/CCCCOc2cccc(OCCCCN3CCCC3=O)c2CCC(=O)O)cc1` [30 (a), 3-[1-[6-(4-methoxyphenyl)hex-5E-enyl]oxy-3-[4-(2-pyrrolidon-1-yl)-n-butoxy]benzen-2-yl]propionic acid], the IC50 at human PMNL LTB4 receptor was determined as 70 nM; in the data set with Human PMNLs it was 1100 nM.
What is called LD50 is the dose expected to kill half of the subjects tested. A low value points to a more toxic substance. As for `COc1ccc(/C=C/CCCCOc2cccc(OCCCCC(=O)O)c2CCC(=O)O)cc1` [31 (a), 3-[1-[6-(4-methoxyphenyl)hex-5E-enyl]oxy-3-(4-carboxylbutyl)oxybenzen-2-yl]propionic acid], the IC50 in the data set with Human PMNLs turned out to be 1900 nM. Besides, the LD50 in data set [1] (intravenous administration) was 260 mg/kg; in data set [1] (oral administration), 2200 mg/kg.
Consider `COc1ccc(/C=C/CCCCOc2ccc(OCCCCC(=O)N(C)C)cc2CCC(=O)O)cc1` [Example 16, 3-[1-[6-(4-methoxyphenyl)hex-5E-enyl]oxy-4-(4-dimethylaminocarbonyl-n-butyl)oxybenzen-2-yl]propionic acid], for which the IC50 worked out at 90 nM at human PMNL LTB4 receptor and 7000 nM in the data set on Human PMNLs.
`COc1ccc(/C=C/CCCCOc2ccc(C(O)CCCC(=O)N(C)C)cc2CCC(=O)O)cc1` (stereo not shown) [Example 20, 3-[1-[6-(4-methoxyphenyl)hex-5E-enyl]oxy-4-(1-hydroxy-4-dimethylaminocarbonylbutyl)benzen-2-yl]propionic acid]: the IC50 worked out at 3.6 nM on human PMNL LTB4 receptor and 2000 nM with Human PMNLs.
Take `COc1ccc(/C=C/CCCCOc2cccc(OCCCCC(=O)N(C)C)c2CCC(=O)O)cc1` [Example 30, 3-[1-[6-(4-methoxyphenyl)hex-5E-enyl]oxy-3-(4-dimethylaminocarbonylbutyl)oxybenzen-2-yl]propionic acid]: the IC50 on human PMNL LTB4 receptor amounted to 16 nM; in the data set with Human PMNLs it was 840 nM. For the same compound, the LD50 turned out to be 175 mg/kg in data set [1] (intravenous administration) and 3900 mg/kg in data set [1] (oral administration).
For the compound `COc1ccc(/C=C/CCCCOc2cccc(OCCCC(=O)O)c2CCC(=O)O)cc1` [Example 31, 3-[1-[6-(4-methoxyphenyl)hex-5E-enyl]oxy-3-(3-carboxylpropyl)oxybenzen-2-yl]propionic acid], the values for the IC50 on human PMNL LTB4 receptor and with Human PMNLs were 40 nM and 6000 nM, respectively.
The matching figures for `COc1ccc(/C=C/CCCCOc2cccc(NC(=O)CCCC(=O)N(C)C)c2CCC(=O)O)cc1` [Example 32, 3-[1-[6-(4-methoxyphenyl)hex-5E-enyl]oxy-3-(4-dimethylaminocarbonylbutanamido)benzen-2-yl]propionic acid]: 50 nM and 5400 nM.
Consider `COc1ccc(/C=C/CCCCOc2cccc(CCCCCC(=O)N(C)C)c2CCC(=O)O)cc1` [Example 34, 3-[1-[6-(4-methoxyphenyl)hex-5E-enyl]oxy-3-(5-dimethylaminocarbonylpentyl)benzen-2-yl]propionic acid], for which the IC50 stood at 20 nM on human PMNL LTB4 receptor and 810 nM in the data set on Human PMNLs.
In the case of `COc1ccc(/C=C/CCCCOc2cccc(C(=O)CCCCC(=O)O)c2CCC(=O)O)cc1` [Example 37, 3-[1-[6-(4-methoxyphenyl)hex-5E-enyl]oxy-3-(1-oxo-5-carboxylpentyl)benzen-2-yl]propionic acid], the results for the half-inhibitory concentration (IC50) at human PMNL LTB4 receptor and with Human PMNLs were 6 nM and 1700 nM, respectively.
Taken in the same sequence, the figures for `COc1ccc(/C=C/CCCCOc2cccc(C(O)CCCCC(=O)O)c2CCC(=O)O)cc1` (stereo not shown) [Example 38, 3-[1-[6-(4-methoxyphenyl)hex-5E-enyl]oxy-3-(1-hydroxy-5-carboxylpentyl)benzen-2-yl]propionic acid] were 120 nM and 4900 nM.
